# What was measured:
# [1] = Alizarin red (ARS) assay, glucose binding affinity; conditions: 20 mM phosphate buffer pH 7.4, room temperature
# Method: (§1) The alizarin-red binding assay is a colorimetric assay used to determine the inhibition affinity of boronate compounds to glucose. The assay is based on a colour shift of alizarin-red upon binding to boronate, which shift can be followed by change in absorbance in the 330-340 nm region.
# (§2) After 5 minutes of centrifugation at 4000 rpm, the plate is placed in a multi-well spectrometer (SpectraMax, Molecular Devices) for absorption detection.
# (§3) The analysis is carried out at room temperature with absorption readings at 330, 340 and 520 nm, respectively. Data obtained for absorption versus concentration of boronate is then fitted (Prism 7, GraphPad) with a sigmoidal function to obtain the Kd value of boronate and ARS.
# (§4) Upon complete dissolution of the compound, 200 μM of Alizarin red (ARS) is added to the solution. The ARS-boronate solution is then aliquoted into a 96 multiwell plate (black, flat and clear bottom) 1:1 with appropriate carbohydrate. In particular, D-glucose and L-lactate solutions are prepared in a 20 mM phosphate buffer pH 7.4 at these concentrations respectively: 1000, 500, 250, 100, 50, 25, 10, 5, 2.5, 1, 0.25, 0.1 mM and 2500, 1000, 500, 100, 50, 10, 5, 1, 0.5, 0.1, 0.05, 0.01 mM. The plate with ARS-boronate mixed with carbohydrate is incubated 20 minutes at room temperature. After 5 minutes of centrifugation at 4000 rpm the plate is placed in a multiwell spectrometer (Spectra Max, Molecular Devices) for absorption detection.
# (§5) The analysis is carried out at room temperature with absorption readings at 330, 340 and 520 nm, respectively.
# [2] = Alizarin red (ARS) assay, lactate binding affinity; conditions: 20 mM phosphate buffer pH 7.4, room temperature, N.D. = not detectable
# Method: as §1, §2, §3, §4, §5
Kd [1] [mM],Kd [2] [mM],SMILES
1.7,31,O=C(O)CNC(=O)c1cc(B(O)O)cc(S(=O)(=O)c2cc(B(O)O)cc(C(F)(F)F)c2)c1 [Example 20]
1.2,34,"O=C(O)CNC(=O)c1cc(B(O)O)cc(S(=O)(=O)c2cc(F)cc(B(O)O)c2)c1 [Example 24, (3-Borono-5-((3-borono-5-fluorophenyl)sulfonyl)benzoyl)glycine]"
2.6,,"O=C(O)CCC(=O)N1C[C@H](NC(=O)c2ccc3c(c2F)B(O)OC3)[C@@H](NC(=O)c2ccc3c(c2F)B(O)OC3)C1 [Example 21, 4-((3S,4S)-3,4-Bis(7-fluoro-1-hydroxy-1,3-dihydrobenzo[c][1,2]oxaborole-6-carboxamido)pyrrolidin-1-yl)-4-oxobutanoic acid]"
1.5,17,"O=C(O)CNC(=O)c1cc(B(O)O)cc(C(=O)c2cc(B(O)O)cc(C(F)(F)F)c2)c1 [Example 19, (3-Borono-5-(3-borono-5-(trifluoromethyl)benzoyl)benzoyl)glycine]"
0.6,20,"O=C(O)CN=S(=O)(c1cc(Cl)cc(B(O)O)c1)c1cc(Cl)cc(B(O)O)c1 [Example 35, 2-((Bis(3-borono-5-chlorophenyl)(oxo)-λ6-sulfanylidene)amino)acetic acid]"
1.5,24.1,"O=C(O)CN(CCNC(=O)c1cc2c(cc1F)COB2O)C(=O)c1cc2c(cc1F)COB2O [Example 7, N-(5-Fluoro-1-hydroxy-1,3-dihydrobenzo[c][1,2]oxaborole-6-carbonyl)-N-(2-(5-fluoro-1-hydroxy-1,3-dihydrobenzo[c][1,2]oxaborole-6-carboxamido)ethyl)glycine]"
2.4,27,"O=C(O)CNC(=O)c1cc(B(O)O)cc(S(=O)(=O)c2cccc(B(O)O)c2)c1 [Example 39, (3-Borono-5-((3-boronophenyl)sulfonyl)benzoyl)glycine]"
2.3,,"O=C(O)CCC(=O)N1C[C@@H](NC(=O)c2cc3c(c(C(F)(F)F)c2)COB3O)[C@H](NC(=O)c2cc3c(c(C(F)(F)F)c2)COB3O)C1 [Example 29, 4-[(3R,4R)-3,4-bis[[1-hydroxy-4-(trifluoromethyl)-3H-2,1-benzoxaborole-6-carbonyl]amino]pyrrolidin-1-yl]-4-oxobutanoic acid]"
4.2,13,"O=C(O)CN(CCNC(=O)c1cc2c(cc1C(F)(F)F)COB2O)C(=O)c1cc2c(cc1C(F)(F)F)COB2O [Example 37, N-(1-Hydroxy-5-(trifluoromethyl)-1,3-dihydrobenzo[c][1,2]oxaborole-6-carbonyl)-N-(2-(1-hydroxy-5-(trifluoromethyl)-1,3-dihydrobenzo[c][1,2]oxaborole-6-carboxamido)ethyl)glycine]"
2.1,24.9,"O=C(O)CN=S(=O)(c1cc(B(O)O)cc(C(F)F)c1)c1cc(B(O)O)cc(C(F)F)c1 [Example 34, 2-((Bis(3-borono-5-(difluoromethyl)phenyl)(oxo)-λ6-sulfanylidene)amino)acetic acid]"
1.1,18,"O=C(O)c1cc(B(O)O)cc(C(=O)c2cc(F)cc(B(O)O)c2)c1 [Example 12, 3-Borono-5-(3-borono-5-fluorobenzoyl)benzoic acid]"
3.4,5.4,"O=C(O)c1cc(CNC(=O)c2ccc(B(O)O)c(F)c2)cc(CNC(=O)c2ccc(B(O)O)c(F)c2)c1 [Example 2, 3,5-Bis((4-borono-3-fluorobenzamido)methyl)benzoic acid]"
0.5,10,"O=C(NC[C@H](NC(=O)c1ccc2c(c1F)B(O)OC2)C(=O)O)c1ccc2c(c1F)B(O)OC2 [Example 15, (S)-2,3-Bis(7-fluoro-1-hydroxy-1,3-dihydrobenzo[c][1,2]oxaborole-6-carboxamido)propanoic acid]"
1.8,17,"O=C(O)c1cc(B(O)O)c(F)c(S(=O)(=O)c2ccc(F)c(B(O)O)c2)c1 [Example 11, 3-Borono-5-((3-borono-4-fluorophenyl)sulfonyl)-4-fluorobenzoic acid]"
2.6,67.9,"O=C(O)CN(CCNC(=O)c1cc2c(cc1F)B(O)OC2)C(=O)c1cc2c(cc1F)B(O)OC2 [Example 9, N-(6-Fluoro-1-hydroxy-1,3-dihydrobenzo[c][1,2]oxaborole-5-carbonyl)-N-(2-(6-fluoro-1-hydroxy-1,3-dihydrobenzo[c][1,2]oxaborole-5-carboxamido)ethyl)glycine]"
2,,"O=C(NC[C@H](NC(=O)c1ccc2c(c1)B(O)OC2)C(=O)O)c1ccc2c(c1)B(O)OC2 [Example 40, (S)-2,3-Bis(1-hydroxy-1,3-dihydrobenzo[c][1,2]oxaborole-6-carboxamido)propanoic acid]"
2.7,34,"O=C(O)CN(CCNC(=O)c1cc(F)c2c(c1)B(O)OC2)C(=O)c1cc(F)c2c(c1)B(O)OC2 [Example 8, N-(4-Fluoro-1-hydroxy-1,3-dihydrobenzo[c][1,2]oxaborole-6-carbonyl)-N-(2-(4-fluoro-1-hydroxy-1,3-dihydrobenzo[c][1,2]oxaborole-6-carboxamido)ethyl)glycine]"
3.2,,"O=C(NCCCC[C@H](NC(=O)c1cc2c(cc1F)B(O)OC2)C(=O)O)c1cc2c(cc1F)B(O)OC2 [Example 10, N^2,N^6-Bis(6-fluoro-1-hydroxy-1,3-dihydrobenzo[c][1,2]oxaborole-5-carbonyl)-L-lysine]"
1.1,41,"O=C(O)CCC(=O)N1C[C@H](NC(=O)c2cc3c(c(C(F)(F)F)c2)COB3O)[C@@H](NC(=O)c2cc3c(c(C(F)(F)F)c2)COB3O)C1 [Example 27, 4-((3S,4S)-3,4-Bis(1-hydroxy-4-(trifluoromethyl)-1,3-dihydrobenzo[c][1,2]oxaborole-6-carboxamido)pyrrolidin-1-yl)-4-oxobutanoic acid]"
1.1,,"O=C(O)CN(CCNC(=O)c1cc2c(c(S(=O)(=O)C(F)(F)F)c1)COB2O)C(=O)c1cc2c(c(S(=O)(=O)C(F)(F)F)c1)COB2O [Example 42, N-(1-Hydroxy-4-((trifluoromethyl)sulfonyl)-1,3-dihydrobenzo[c][1,2]oxaborole-6-carbonyl)-N-(2-(1-hydroxy-4-((trifluoromethyl)sulfonyl)-1,3-dihydrobenzo-[c][1,2]oxaborole-6-carboxamido)ethyl)glycine]"
0.7,22,"O=C(O)c1c(C(F)(F)F)cc(B(O)O)cc1S(=O)(=O)c1cc(B(O)O)cc(C(F)(F)F)c1 [Example 43, 4-Borono-2-((3-borono-5-(trifluoromethyl)phenyl)sulfonyl)-6-(trifluoromethyl)benzoic acid]"
0.4,13,"O=C(O)CNC(=O)c1cc(B(O)O)cc(C(F)(F)c2cc(B(O)O)cc(C(F)(F)F)c2)c1 [Example 18, (3-Borono-5-((3-borono-5-(trifluoromethyl)phenyl)difluoromethyl)benzoyl)glycine]"
3.2,16,"O=C(NCCCC[C@H](NC(=O)c1cc2c(cc1F)B(O)OC2)C(=O)O)c1ccc(B(O)O)cc1F [Example 14, N^6-(4-Borono-2-fluorobenzoyl)-N^2-(6-fluoro-1-hydroxy-1,3-dihydrobenzo[c][1,2]oxaborole-5-carbonyl)-L-lysine]"
1.4,4.4,"CS(=O)(=O)c1cc(C(=O)NCCN(CC(=O)O)C(=O)c2cc3c(c(S(C)(=O)=O)c2)COB3O)cc2c1COB2O [Example 41, N-(1-Hydroxy-4-(methylsulfonyl)-1,3-dihydrobenzo[c][1,2]oxaborole-6-carbonyl)-N-(2-(1-hydroxy-4-(methylsulfonyl)-1,3-dihydrobenzo[c][1,2]oxaborole-6-carboxamido)ethyl)glycine]"
3.7,,"O=C(O)CN=S(=O)(c1cc2c(c(C(F)(F)F)c1)COB2O)c1cc2c(c(C(F)(F)F)c1)COB2O [Example 38, 2-((Bis(1-hydroxy-4-(trifluoromethyl)-1,3-dihydrobenzo[c][1,2]oxaborol-6-yl)(oxo)-λ6-sulfanylidene)amino)acetic acid]"
0.3,,"O=C(O)CNC(=O)c1cc(B(O)O)cc(S(=O)(=O)c2cc(B(O)O)cc(S(F)(F)(F)(F)F)c2)c1 [Example 28, (3-Borono-5-((3-borono-5-(pentafluoro-λ^6-sulfanyl)phenyl)sulfonyl)benzoyl)glycine]"
3.1,8.6,"O=C(O)c1cc(CNC(=O)c2ccc(B(O)O)cc2F)cc(CNC(=O)c2ccc(B(O)O)cc2F)c1 [Example 1, 3,5-Bis((4-borono-2-fluorobenzamido)methyl)benzoic acid]"
1.6,,"O=C(NC[C@H](NC(=O)c1cc(F)c2c(c1)B(O)OC2)C(=O)O)c1cc(F)c2c(c1)B(O)OC2 [Example 17, (S)-2,3-Bis(4-fluoro-1-hydroxy-1,3-dihydrobenzo[c][1,2]oxaborole-6-carboxamido) propanoic acid]"
1.1,,"O=C(O)c1cc(CNC(=O)c2ccc3c(c2F)B(O)OC3)cc(CNC(=O)c2ccc3c(c2F)B(O)OC3)c1 [Example 6, 3,5-Bis((7-fluoro-1-hydroxy-1,3-dihydrobenzo[c][1,2]oxaborole-6-carboxamido)methyl) benzoic acid]"

# Reference: patent publication US11767332B2, “Glucose-sensitive albumin-binding derivatives” (Novo Nordisk A/S, priority 2017, dated 2023)
